{"source": "paper PMC11401107", "about": "(Heliyon, 2024)", "key": {"soybean 15-LOX": {"target": "T1, soybean 15-LOX (Glycine max, UniProt P08170)", "T1 sequence (P08170 1-839)": "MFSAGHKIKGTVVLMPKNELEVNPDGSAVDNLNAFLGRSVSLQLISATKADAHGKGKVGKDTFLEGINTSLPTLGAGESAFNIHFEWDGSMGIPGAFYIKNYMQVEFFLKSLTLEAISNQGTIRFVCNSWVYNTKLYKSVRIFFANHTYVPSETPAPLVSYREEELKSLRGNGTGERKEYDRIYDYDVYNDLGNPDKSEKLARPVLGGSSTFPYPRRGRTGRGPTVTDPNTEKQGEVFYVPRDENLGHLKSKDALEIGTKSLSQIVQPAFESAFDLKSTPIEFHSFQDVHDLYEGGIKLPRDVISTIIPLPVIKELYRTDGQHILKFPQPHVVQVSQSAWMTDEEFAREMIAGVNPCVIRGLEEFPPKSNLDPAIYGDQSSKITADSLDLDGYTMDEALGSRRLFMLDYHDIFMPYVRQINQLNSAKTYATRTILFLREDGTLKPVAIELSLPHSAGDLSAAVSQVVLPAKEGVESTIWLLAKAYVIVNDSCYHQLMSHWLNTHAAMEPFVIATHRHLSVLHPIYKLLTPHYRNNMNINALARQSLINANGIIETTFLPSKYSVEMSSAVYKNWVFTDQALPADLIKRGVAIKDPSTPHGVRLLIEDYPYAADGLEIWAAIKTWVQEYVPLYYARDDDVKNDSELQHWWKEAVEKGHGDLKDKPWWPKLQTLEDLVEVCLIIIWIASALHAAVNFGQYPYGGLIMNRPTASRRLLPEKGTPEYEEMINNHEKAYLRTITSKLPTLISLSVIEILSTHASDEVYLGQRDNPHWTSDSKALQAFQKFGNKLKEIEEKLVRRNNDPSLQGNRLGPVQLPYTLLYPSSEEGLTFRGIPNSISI", "experiment": "15-LOX inhibition assay", "format": "biochemical", "conditions": "for inhibition at 250 µM: read-out: 15-LOX assay Inhibition (%) at 0.25 mM; for 15-LOX assay Inhibition (%) at 0.25 mM / 15-LOX assay IC50 (μM) / IC50: Mean ± SEM, n = 3; for IC50: read-out: 15-LOX assay IC50"}, "[1]": {"tested_on": "human blood mononuclear cells (MNCs)", "experiment": "Cell viability assay", "format": "cell-based", "conditions": "MNCs; 0.25 mM; Mean ± SEM, n = 3"}, "LOX": {"tested_on": "LOX", "conditions": "LOX inhibition; cited from earlier work"}, "Cell viability assay": {"experiment": "Cell viability assay", "format": "cell-based, human", "conditions": "human, human blood mononuclear cells (MNCs), pH 7.4"}}}
{"compound": "O=c1c(O)c(-c2ccc(O)c(O)c2)oc2cc(O)cc(O)c12", "note": "[Quercetin, reference compound]", "values": [{"measurement": "inhibition at 250 µM", "setting": "soybean 15-LOX", "value": "96.6 ± 1.24", "unit": "%"}]}
{"compound": "CCn1c(SC(C)C(=O)Nc2c(C)cccc2C)nnc1C1CCN(C(=O)Nc2ccccc2)CC1", "note": "(centres unmarked) [7k, 2-(5-(1-Phenylcarbamoylpiperdine-4-yl)-4-ethyl-4H-1,2,4-triazol-3-ylthio)-N-2,6-dimethylphenylpropanamide]", "values": [{"measurement": "15-LOX assay Inhibition (%) at 0.25 mM", "setting": "soybean 15-LOX", "value": "56.49 ± 1.59", "unit": "%"}, {"measurement": "15-LOX assay IC50 (μM)", "setting": "soybean 15-LOX", "value": "inactive"}, {"measurement": "IC50", "setting": "soybean 15-LOX", "value": "> 200", "unit": "µM"}, {"measurement": "MTT assay Cell viability (%) at 0.25 mM", "setting": "[1]", "value": "75.67 ± 2.8", "unit": "%"}]}
{"compound": "CCn1c(SC(C)C(=O)Nc2cc(C)cc(C)c2)nnc1C1CCN(C(=O)Nc2ccccc2)CC1", "note": "(centres unmarked) [7m, 2-(5-(1-Phenylcarbamoylpiperdine-4-yl)-4-ethyl-4H-1,2,4-triazol-3-ylthio)-N-3,5-dimethylphenylpropanamide]", "values": [{"measurement": "15-LOX assay Inhibition (%) at 0.25 mM", "setting": "soybean 15-LOX", "value": "57.37 ± 1.46", "unit": "%"}, {"measurement": "15-LOX assay IC50 (μM)", "setting": "soybean 15-LOX", "value": "inactive"}, {"measurement": "IC50", "setting": "soybean 15-LOX", "value": "> 200", "unit": "µM"}, {"measurement": "MTT assay Cell viability (%) at 0.25 mM", "setting": "[1]", "value": "78.24 ± 2.7", "unit": "%"}]}
{"compound": "COc1ccc(-c2csc3nc(-c4ccccc4)c(NC(C)(C)CC(C)(C)C)n23)cc1", "note": "[i, 3-(4-methoxyphenyl)-N-(2,4,4-trimethylpentane-2-yl)-6-phenylimidazo [2,1-b]thiazol-5-amine]", "values": [{"measurement": "IC50", "setting": "LOX", "value": "11.5 ± 0.78", "unit": "µM"}]}
{"compound": "O=c1cc(-c2ccccc2)oc2cc(O)c(O)c(O)c12", "note": "[Baicalein, reference compound]", "values": [{"measurement": "inhibition at 250 µM", "setting": "soybean 15-LOX", "value": "93.8 ± 1.27", "unit": "%"}]}
{"compound": "O=P1(N(CCCl)CCCl)NCCCO1", "note": "(centres unmarked) [Cyclophosphamide, reference compound]", "values": [{"measurement": "viability at 2 h, 0.25 mM", "setting": "Cell viability assay", "value": "58.5 ± 2.6", "unit": "%"}]}
{"compound": "Cc1ccc(NN=C2C(=N)N(c3ccc(S(N)(=O)=O)cc3)N=C2N)cc1", "note": "[ii, 4-{3-amino-4-[(4-methylphenyl)-hydrazono]-5-imino-4,5-dihydropyrazol-1-yl}-benzenesulfonamide]", "values": [{"measurement": "IC50", "setting": "LOX", "value": "1.92 ± 0.01", "unit": "µM"}]}
{"compound": "COc1cc(/C=C/C(=O)CC(=O)/C=C/c2ccc(O)c(OC)c2)ccc1O", "note": "[Curcumin, reference compound]", "values": [{"measurement": "viability at 2 h, 0.25 mM", "setting": "Cell viability assay", "value": "71.8 ± 2.8", "unit": "%"}]}
